Entries after “also recorded” stand apart in the source; their conditions may differ.
Assays:
[1] = tested on: Filoviruses, including the Marburg and Ebola viruses; conditions: cited from earlier work
[2] = tested on: MBG pseudotype virus; assay type: cell-based, Marburg virus
[3] = tested on: EBO-Z pseudotype virus; assay type: cell-based, Ebola-Zaire virus
[4] = tested on: Ampho luciferase virus; assay type: cell-based, amphotropic murine leukemia virus
[5] = molecular target: FR-α (Homo sapiens, UniProt P15328); conditions: cited from earlier work
Chain of FR-α (P15328 25-234): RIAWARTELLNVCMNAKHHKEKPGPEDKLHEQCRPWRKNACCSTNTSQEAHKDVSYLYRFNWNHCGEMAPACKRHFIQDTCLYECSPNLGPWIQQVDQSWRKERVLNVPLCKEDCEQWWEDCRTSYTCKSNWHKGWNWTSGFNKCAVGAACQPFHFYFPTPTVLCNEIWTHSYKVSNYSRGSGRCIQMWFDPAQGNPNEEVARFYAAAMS

NC(=O)c1ncn([C@@H]2O[C@H](CO)[C@@H](O)[C@H]2O)n1 [ribavirin]
in vitro effect against filoviruses [1]: no in vitro effect

Nc1nc2ncc(CNc3ccc(C(=O)N[C@@H](CCC(=O)O)C(=O)O)cc3)nc2c(=O)[nH]1 [folic acid]
entry by MBG luciferase virus [2]: specifically inhibited
reduction of MBG virus entry [2]: ~80%
entry by EBO-Z virus [3]: inhibited significantly; also recorded: specifically inhibited
entry by Ampho luciferase pseudotype [4]: very slight alteration; also recorded: did not significantly decrease; also recorded: not Ampho

CN1c2c(nc(N)[nH]c2=O)NCC1CNc1ccc(C(=O)N[C@@H](CCC(=O)O)C(=O)O)cc1 (stereo partly drawn) [5-methyltetrahydrofolic acid]
binding affinity to FR-α [5]: high affinity
